This data set can be described thus: Pharmacokinetic study, single intravenous infusion in cynomolgus monkeys. As to conditions: both, cynomolgus monkey, in vivo. The protocol:
18 cynomolgus monkeys (half female and half male) were weighed one day before administration, stratified based on the weight, and then randomly divided into 3 groups (3 females and 3 males/group): a low dose group (1 mg/kg), a medium dose group (3 mg/kg), and a high dose group (10 mg/kg). […] Blood was collected from the forelimb veins of cynomolgus monkeys in each group, and treated samples of the blood collected at 0 h before and 0.5 […], and 672 h after the administration were used as PK samples. After the blood collection at each time point was completed, serum was obtained by centrifugation for sample analysis.

The structures appear in SMILES notation.

Consider `CC[C@@]1(O)C(=O)OCc2c1cc1n(c2=O)Cc2c-1nc1cc(F)c(C)c3c1c2[C@@H](NC(=O)C[C@H](C)O)CC3` [P-III-30], for which the AUC0-t was determined as 1.07 ng·h/mL (3 mg/kg) and 44.5 ng·h/mL (10 mg/kg). Moreover, the Cmax – broadly, the highest concentration seen after dosing – (3 mg/kg) amounted to 0.133 ng/mL.

(Values after patent US20260224723A1, “ANTI-B7H3 ANTIBODY-DRUG CONJUGATE AND USE THEREOF” (Duality Biologics (Suzhou) Co., Ltd., priority 2022, published 2026).)
